Results on 29 molecules are retold here after patent US10137122B2, “Kinase inhibitors and methods of use thereof” (priority 2012, dated 2018).

Read-outs that look alike come from different tables or passages of the source. Bounds are passed on as bounds.

For data set [1], the system named is β-catenin nuclear translocation in U2-OS cells. Briefly: β-Catenin nuclear localization assay. The format is cell-based. Particulars: read-out: beta-Catenin translocation EC50.
Method: β-Catenin Nuclear Localization Assay
U2-OS cells stably expressing two complimentary β-galactosidase fragments (one part on β-Catenin and the other constitutively expressed in the cell nucleus) were maintained in DMEM F12 supplemented with 10% FBS. When β-catenin translocates to the nucleus, the complimentary fragments form a complete β-galactosidase, the amount of which is then quantified by β-galactosidase activity (DiscoveRx). Cells were seeded in a 384-well CulturPlate (Perkin Elmer, Boston, Mass.) with 10,000 per well in 20 μL DMEM F12 containing 10% FCS, 100 U/ml penicillin and 100 μg/mL streptomycin. After overnight incubation at 37° C., cells were stimulated with 100 nL test compound/well and then returned to the incubator for 6 h. Cells were disrupted using 12 μL substrate-containing lysis buffer from the PathHunter Detection Kit in the formulation specified by the supplier (DiscoveRx). Plates were incubated in the dark for 1 h at room temperature before measurement of β-galactosidase activity (luminescence) on an EnVision plate reader (PerkinElmer, Waltham, Mass.).
The subject of data set [2] is TCF/LEF reporter in HEK293-pBARL cells. Particulars: read-out: TCF/LEF EC50.
Method: (§1) HEK293-pBARL cells were derived from HEK293 cells and they stably expressed a firefly-luciferase reporter gene driven by a promoter containing 12 copies of TCF/LEF binding sequences. These cells were maintained in DMEM and supplemented with 10% FBS and 1% penicillin-streptomycin (Invitrogen). Reporter gene assays were conducted in anti-biotic free media. […] These cells also contained a renilla-luciferase reporter gene driven by the ubiquitous EF1α promoter as a control. HEK293-pBarl reporter cell lines were seeded into 384-well culture plates (Corning) at 6000 cells/well. 24 hours after plating, cells were treated overnight with relevant compounds and assayed using DualGlo assay kit (Promega). Luminescent intensities were read by EnVision (PerkinElmer, Waltham, Mass.). Firefly luciferase intensity is normalized by renilla luciferase intensity.
(§2) Cells were cultured in 384 well plates to appropriate density (40 μl total plating volume). 24 hours after plating, cells were treated with 100 nl compounds. 24 hours after incubation with compounds (48 hours after plating), assay reagents were prepared by mixing Luciferase Assay solution with Luciferase substrate and Stop & Glo solution to Stop & Glo substrate (extra reagents can be aliquoted and frozen for future use and are stable for at least one freeze/thaw cycle). […] The plate was spun down and 10 minutes were allowed for signal stabilization. Luciferase signal on the Perkin Elmer EnVision using the following parameters: Distance between plate & detector (mm)=0.2; Measurement time(s)=0.1; Glow (CT2) correction factor=0. Once the initial data is secure, a volume of Stop & Glo was added equal to each well equal to the volume of Luciferase reagent added above (If 10 μl Luciferase Reagent was added, 10 μl Stop & Glo was also added). The plate was spun down and 10 minutes were allowed for signal stabilization. The plate was read on the EnVision using the same parameters detailed above.
Data set [3] deals with CDK5/p25 (Homo sapiens (Human), UniProt Q00535).
Method: Biochemical characterization of these synthesized compounds were assayed against GSK3β and CDK5/p25, with CDK5/p25 serving as a counter target of GSK3β selectivity. […] The effects of these compounds on survival of SH-SY5Y pathophysiology cells were also monitored.
In data set [4] the test system is TCF/LEF reporter in HEK293-pBARL cells. Briefly: cells. The conditions noted are these: Homo sapiens.
Method: as §1, §2
The test system of data set [5] is phospho-Tau (Ser199) in SH-SY5Y cells. Briefly: Tau phosphorylation assay (phospho-Tau Ser199 ELISA). Type of data set: cell-based, human. The conditions noted are these: read-out: p-Tau Inhibition ELISA EC50 SH-SY5Y.
Method: Tau Phosphorylation and Total Tau Assay
SH-SY5Y cells were maintained in DMEM supplemented with 10% heat-inactivated FBS and 1% penicillin-streptomycin (Invitrogen) unless otherwise stated. ELISA kits for phospho-Tau (Ser199) and total Tau detection were purchased from Invitrogen (KHB0041, and KHB7041 respectively). Briefly, SH-SY5Y cells were seeded at 50,000 cells/200 μL/well in 96 well plates and after overnight incubation, treated with various doses of chemical compounds at 0.2 μL/well. The next day cells were washed with PBS twice before being lysed in 100 μL Lysis buffer/well. 50 μL of cell lysate of each sample was transferred to an ELISA vial coated with the capture antibody, and the mixture was incubated at room temperature for 2 hours, before the supernatant was aspired, and each vial washed four times. 100 μL of detection antibody was then added to each well, incubated for 1 hour, and then washed four times. […] Data were scaled using the positive and neutral controls and fitted for IC50.
A standard protocol using an immunoassay kit to quantify total Tau protein and phospho-Tau (Ser199) protein in SH-SY5Y human neuroblastoma cells was employed. Human Tau (Total) ELISA kit (#KHB0041) and human phosphor-Tau (Ser199) ELISA kit were purchased from Invitrogen (#KHB7041)
50,000 cells were seeded in 200 μl per well in cell culture media (250,000 cells/ml). Cells were incubated overnight @37° C. Cells were induced with appropriate doses of inhibitors and incubated for approximately 24 hrs @37° C. Cell lysates were harvested by washing cells once with cold PBS and adding 100 μl cold lysis buffer and pipette up and down vigorously. Lysate was transferred to 96 well PCR plate and centrifuged at 4,000 rpm for 20 minutes at 4° C.
Well strips were warmed and inserted into the frame. 100μ of standard diluent buffer were loaded into ZERO wells, and 100 ul of each standard concentrations (both total Tau and pTau) were loaded into wells in duplicate. Samples were loaded to each well that would be analyzed for total Tau, 85 μl standard diluent buffer and 15 μl cell lysate were added. To each well that will be analyzed for pTau (Ser199) 50 μl standard diluent buffer+50 μl cell lysate were added. Plates were tapped gently on the side to mix. Certain wells were left empty for chromogen blank. Plates were covered and incubated for 2 hours at room temperature. Wells were aspirated 4 times (400 μl diluted wash buffer, left for 30 seconds, aspirated all wells; alternatively used automated plate washer and programmed in a 30 second hold between each cycle). 100 μl of detection antibody solution were added to each well except chromogen blanks. Anti-total Tau was added to wells being analyzed for total Tau, anti-pTau (Ser199) was added to wells being analyzed for pTau (Ser199), and plates were tapped gently on the side to mix. Plates were covered and incubated for 1 hour at room temperature, then wells were aspirated and washed 4 times as described above. 100 μl of anti-rabbit IgG HRP working solution (prepared ahead) were added to each well except chromogen blanks, and plates were covered and incubated for 30 minutes at room temperature, then wells were aspirated and washed 4 times as described above. 100 μl of stabilized chromogen were added to each well (the liquid turned blue). Plates were incubates for 30 minutes at room temperature in the dark, then 100 μl of stop solution were added to each well, and plates were tapped gently on the side to mix. Absorbance of each well was read at 450 nm (within 2 hours of adding stop solution).
For data set [6] the following is noted: mouse plasma, 5 hours.
In data set [7] the target is GSK3α (Homo sapiens (Human), UniProt P49840).
Method: GSK3β Microfluidic Mobility-Shift Assay
Reactions were terminated by the addition of 10 mM EDTA. Substrate and product were separated electrophoretically and fluorescence intensity of the substrate and product was determined by Labchip EZ Reader II (Caliper Life Sciences, MA). The kinase activity was measured as percent conversion. The reactions were performed in duplicate for each sample. […] The results were analyzed by Genedata Assay Analyzer. The percent inhibition was plotted against the compound concentration and the IC50 value was determined from the logistic dose-response curve fitting.
For data set [8] the following is noted: mouse, microsomes, 1 h.
The mark [9] stands for this setting: HEK293, read-out: TCF/LEF EC50 (μM).

Chain of CDK5/p25 (Q00535 whole entry, species assumed): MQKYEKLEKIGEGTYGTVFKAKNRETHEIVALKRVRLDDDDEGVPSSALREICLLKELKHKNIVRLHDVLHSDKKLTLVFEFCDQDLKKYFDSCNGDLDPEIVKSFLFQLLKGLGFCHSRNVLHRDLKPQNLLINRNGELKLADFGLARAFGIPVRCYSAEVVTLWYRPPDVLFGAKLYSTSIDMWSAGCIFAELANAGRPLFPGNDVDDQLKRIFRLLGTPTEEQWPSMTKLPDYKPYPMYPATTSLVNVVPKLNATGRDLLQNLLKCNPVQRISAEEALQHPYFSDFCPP
Chain of CDK5/p25 (Q15078 99-307 partner, species assumed): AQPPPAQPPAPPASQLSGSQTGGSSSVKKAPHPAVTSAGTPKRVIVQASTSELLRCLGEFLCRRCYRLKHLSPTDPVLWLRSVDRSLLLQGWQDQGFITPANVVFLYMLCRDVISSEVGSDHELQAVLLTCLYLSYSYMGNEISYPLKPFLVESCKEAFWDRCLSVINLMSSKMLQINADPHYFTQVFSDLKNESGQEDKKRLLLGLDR
Chain of GSK3α (P49840 whole entry): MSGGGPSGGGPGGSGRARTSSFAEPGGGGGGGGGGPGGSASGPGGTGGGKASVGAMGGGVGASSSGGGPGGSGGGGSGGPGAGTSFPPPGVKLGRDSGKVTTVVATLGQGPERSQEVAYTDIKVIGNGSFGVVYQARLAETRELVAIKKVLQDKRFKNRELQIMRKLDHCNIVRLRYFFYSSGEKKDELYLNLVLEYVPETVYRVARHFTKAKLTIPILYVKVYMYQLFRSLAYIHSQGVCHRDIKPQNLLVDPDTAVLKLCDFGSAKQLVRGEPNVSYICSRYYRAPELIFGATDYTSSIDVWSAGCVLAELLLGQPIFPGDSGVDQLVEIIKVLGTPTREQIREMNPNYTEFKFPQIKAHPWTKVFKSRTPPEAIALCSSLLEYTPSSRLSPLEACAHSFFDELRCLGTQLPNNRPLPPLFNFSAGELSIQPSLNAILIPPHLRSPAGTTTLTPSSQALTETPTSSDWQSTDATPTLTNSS

On to `Cc1[nH]nc2c1C(C1CCCCC1)C1=C(CC(C)(C)CC1=O)N2` (centres unmarked) [Compound 44], for which the results for the EC50 in data set [1] and in data set [2] were over 50 µM and over 25 µM, respectively.
As to `COc1ccccc1C1C2=C(CCC(C)(C)C2=O)Nc2n[nH]c(C)c21` (centres unmarked) [Compound 45], the “ADP Glo Assay GSK3β vs CDK5 fold selectivity” value in data set [3] is on record as 20X. Besides, the EC50 in data set [1] is over 50 µM; in data set [2] it was over 25 µM.
On to `COc1ccccc1C1C2=C(CC(C)(C)CC2=O)Nc2n[nH]c(-c3ccccc3)c21` (centres unmarked) [Compound 51], for which the EC50 in data set [1] is over 50 µM; in data set [2] it was over 25 µM.
As to `CC1(C)CC(=O)C2=C(C1)Nc1n[nH]c(C(F)(F)F)c1C2c1cc(F)ccc1OC(F)(F)F` (centres unmarked) [Compound 61], the EC50 in data set [2] was over 25 µM.
Consider `COc1ccccc1C1C2=C(CC(C)(C)CC2=O)Nc2n[nH]cc21` (centres unmarked) [Compound 47], for which the “ADP Glo Assay GSK3β vs CDK5 fold selectivity” value in data set [3] worked out at 34X.
`CC1(C)CC(=O)C2=C(C1)Nc1n[nH]c(C(F)(F)F)c1C2c1ccccc1F` (centres unmarked) [Compound 58]: the EC50 in data set [2] is over 25 µM.
`Cc1[nH]nc2c1C(c1ccccc1C(F)(F)F)C1=C(CC(C)(C)CC1=O)N2` (racemic) [Compound 27, 3,7,7-trimethyl-4-(2-(trifluoromethyl)phenyl)-6,7,8,9-tetrahydro-2H-pyrazolo[3,4-b]quinolin-5(4H)-one]: in data set [3], the “ADP Glo Assay GSK3β vs CDK5 fold selectivity” value amounted to 34X. For the same molecule, the EC50 stood at 9.59 µM in data set [4] (setting [9]); 4.24 µM in data set [5] (Homo sapiens, SH-SY5Y); 12 µM in data set [1] (Homo sapiens, U2OS).
On to `Cc1[nH]nc2c1C(c1cccc(C(F)(F)F)c1)C1=C(CC(C)(C)CC1=O)N2` (centres unmarked) [Compound 30, 3,7,7-trimethyl-4-(3-(trifluoromethyl)phenyl)-6,7,8,9-tetrahydro-2H-pyrazolo[3,4-b]quinolin-5(4H)-one], for which the EC50 in data set [4] (setting [9]) turned out to be 7.67 µM; in data set [5] (Homo sapiens, SH-SY5Y) it was 4.68 µM; in data set [1] (Homo sapiens, U2OS) it was 11.2 µM.
Take `COc1ccccc1C1C2=C(CC(C)(C)CC2=O)Nc2n[nH]c(C(C)(C)C)c21` (centres unmarked) [Compound 50]: the values for the EC50 in data set [1] and in data set [2] were over 50 µM and over 25 µM, respectively.
With `COc1ccccc1[C@H]1C2=C(CC(C)(C)CC2=O)Nc2n[nH]c(C(F)(F)F)c21` [Compound 55, (S)-4-(2-methoxyphenyl)-7,7-dimethyl-3-(trifluoromethyl)-6,7,8,9-tetrahydro-2H-pyrazolo[3,4-b]quinolin-5(4H)-one], the EC50 in data set [4] (HEK293, read-out: TCF/LEF EC50 (μM), HEK293 reporter cells) was over 25 µM; in data set [5] (Homo sapiens), over 30 µM; in data set [1] (Homo sapiens, U2OS) it was over 50 µM.
As to `Cc1[nH]nc2c1C(c1ccccc1Cl)C1=C(CC(C)(C)CC1=O)N2` (centres unmarked) [Compound 13, 4-(2-chlorophenyl)-3,7,7-trimethyl-6,7,8,9-tetrahydro-2H-pyrazolo[3,4-b]quinolin-5(4H)-one], the EC50 in data set [4] (setting [9]) was determined as 24 µM; in data set [5] (Homo sapiens, SH-SY5Y) it was 2.49 µM; in data set [1] (Homo sapiens, U2OS) it was 41.1 µM.
With `Cc1[nH]nc2c1C(c1ccccc1Br)C1=C(CC(C)(C)CC1=O)N2` (centres unmarked) [Compound 16], the “ADP Glo Assay GSK3β vs CDK5 fold selectivity” value in data set [3] is given as 14X.
Turning to `CC1(C)CC(=O)C2=C(C1)Nc1n[nH]cc1[C@]2(C)c1ccccc1` (racemic) [Compound 108], the “Plasma stability % remaining” value in data set [6] is given as 96.6%.
As to `CCc1[nH]nc2c1C(c1ccccc1OC)C1=C(CC(C)(C)CC1=O)N2` (centres unmarked) [Compound 48], the “ADP Glo Assay GSK3β vs CDK5 fold selectivity” value in data set [3] came out at 35X.
For `COc1ccccc1C1C2=C(CC3(CCCCC3)CC2=O)Nc2n[nH]c(C)c21` (centres unmarked) [Compound 56], the EC50 in data set [1] is over 50 µM; in data set [2] it was over 25 µM.
With `COc1ccccc1C1C2=C(CC(C)(C)CC2=O)Nc2n[nH]c(C(C)C)c21` (centres unmarked) [Compound 49], the “ADP Glo Assay GSK3β vs CDK5 fold selectivity” value in data set [3] is recorded as 14X. Further, the results for the EC50 in data set [1] and in data set [2] were over 50 µM and over 25 µM, respectively.
For `Cc1[nH]nc2c1C(C)C1=C(CC(C)(C)CC1=O)N2` (centres unmarked) [Compound 42], in that order: 23X, over 50 µM and over 25 µM.
For the molecule `CSc1ccccc1C1C2=C(CC(C)(C)CC2=O)Nc2n[nH]c(C)c21` (centres unmarked) [Compound 25, 3,7,7-trimethyl-4-(2-(methylthio)phenyl)-6,7,8,9-tetrahydro-2H-pyrazolo[3,4-b]quinolin-5(4H)-one], the EC50 amounted to 4.34 µM in data set [4] (setting [9]); 2.85 µM in data set [5] (Homo sapiens, SH-SY5Y); 10.9 µM in data set [1] (Homo sapiens, U2OS).
Regarding `Cc1[nH]nc2c1[C@H](c1ccccc1C(F)(F)F)C1=C(CC(C)(C)CC1=O)N2` (stereo in doubt) [Compound 28, 3,7,7-trimethyl-4-(2-(trifluoromethyl)phenyl)-6,7,8,9-tetrahydro-2H-pyrazolo[3,4-b]quinolin-5(4H)-one], the EC50 in data set [4] (setting [9]) was found to be 4.8 µM; in data set [5] (Homo sapiens, SH-SY5Y) it was 1.8 µM; in data set [1] (Homo sapiens, U2OS), 6.32 µM.
As for `CC1(C)CC(=O)C2=C(C1)Nc1n[nH]c(C(F)(F)F)c1C2(C)c1ccccc1` (racemic) [Compound 68, 4,7,7-trimethyl-4-phenyl-3-(trifluoromethyl)-6,7,8,9-tetrahydro-2H-pyrazolo[3,4-b]quinolin-5(4H)-one], in data set [3], the “ADP Glo Assay GSK3β vs CDK5 fold selectivity” value was determined as 244X. For the same molecule, the EC50 in data set [4] (setting [9]) was determined as 7.77 µM; in data set [1] (Homo sapiens, U2OS), 10.8 µM.
`Cc1[nH]nc2c1[C@@H](c1ccccc1C(F)(F)F)C1=C(CC(C)(C)CC1=O)N2` (stereo in doubt) [Compound 29, 3,7,7-trimethyl-4-(2-(trifluoromethyl)phenyl)-6,7,8,9-tetrahydro-2H-pyrazolo[3,4-b]quinolin-5(4H)-one]: the EC50 was over 25 µM in data set [4] (setting [9]); over 30 µM in data set [5] (Homo sapiens, SH-SY5Y); over 50 µM in data set [1] (Homo sapiens, U2OS).
For the molecule `Cc1ccccc1C1C2=C(CC(C)(C)CC2=O)Nc2n[nH]c(C)c21` (centres unmarked) [Compound 17, 3,7,7-trimethyl-4-(o-tolyl)-6,7,8,9-tetrahydro-2H-pyrazolo[3,4-b]quinolin-5(4H)-one], the “ADP Glo Assay GSK3β vs CDK5 fold selectivity” value in data set [3] was 14X. In data set [7], this molecule registered an IC50 of under 0.1 µM. In addition, the EC50 in data set [4] (setting [9]) is over 25 µM; in data set [1] (Homo sapiens, U2OS), over 50 µM.
In the case of `Cc1[nH]nc2c1C(C1CC1)C1=C(CC(C)(C)CC1=O)N2` (centres unmarked) [Compound 43], the EC50 in data set [5] is over 30 µM; in data set [1], over 50 µM; in data set [2], over 25 µM.
With `COc1ccccc1C1C2=C(CCCC2=O)Nc2n[nH]c(C)c21` (centres unmarked) [Compound 46], the “ADP Glo Assay GSK3β vs CDK5 fold selectivity” value in data set [3] was found to be 6X. For the same molecule, the EC50 in data set [1] is over 50 µM; in data set [2], over 25 µM.
With `CC1(C)CC(=O)C2=C(C1)Nc1n[nH]c(C(F)(F)F)c1C2c1cc(F)ccc1C(F)(F)F` (centres unmarked) [Compound 64], in data set [2], the EC50 was over 25 µM.
Still for that read-out and setting: in the case of `CC1(C)CC(=O)C2=C(C1)Nc1n[nH]c(C(F)(F)F)c1C2c1cc(F)ccc1F` (centres unmarked) [Compound 60] it was over 25 µM.
As for `Cc1[nH]nc2c1C(c1ccccc1)(C(F)(F)F)C1=C(CC(C)(C)CC1=O)N2` (centres unmarked) [Compound 83], the “Microsomal stability 60 min” value in data set [8] turned out to be 51.5%.
As for `Cc1[nH]nc2c1C(c1cccc3nonc13)C1=C(CC(C)(C)CC1=O)N2` (centres unmarked) [Compound 41, 4-(benzo[c][1,2,5]oxadiazol-4-yl)-3,7,7-trimethyl-6,7,8,9-tetrahydro-2H-pyrazolo[3,4-b]quinolin-5(4H)-one], in data set [3], the “ADP Glo Assay GSK3β vs CDK5 fold selectivity” value was 51X. In data set [7], this molecule gave an IC50 of under 0.1 µM. Besides, the EC50 in data set [4] (setting [9]) stood at 6.7 µM; in data set [5] (Homo sapiens, SH-SY5Y), 2.27 µM; in data set [1] (Homo sapiens, U2OS), 11.8 µM.
For `CC1(C)CC(=O)C2=C(C1)Nc1n[nH]c(C(F)(F)F)c1C2c1ccc(F)cc1C(F)(F)F` (centres unmarked) [Compound 65], the “ADP Glo Assay GSK3β vs CDK5 fold selectivity” value in data set [3] is reported as 130X. For the same molecule, the EC50 in data set [2] is over 25 µM.
